Molecular target: hENO1 (Homo sapiens, UniProt P06733)
Assay: isothermal titration calorimetry
Assay type: binding
Conditions: stoichiometry 1.4-1.6 molecules of 1 per hENO1

Chain of hENO1 (P06733 2-434): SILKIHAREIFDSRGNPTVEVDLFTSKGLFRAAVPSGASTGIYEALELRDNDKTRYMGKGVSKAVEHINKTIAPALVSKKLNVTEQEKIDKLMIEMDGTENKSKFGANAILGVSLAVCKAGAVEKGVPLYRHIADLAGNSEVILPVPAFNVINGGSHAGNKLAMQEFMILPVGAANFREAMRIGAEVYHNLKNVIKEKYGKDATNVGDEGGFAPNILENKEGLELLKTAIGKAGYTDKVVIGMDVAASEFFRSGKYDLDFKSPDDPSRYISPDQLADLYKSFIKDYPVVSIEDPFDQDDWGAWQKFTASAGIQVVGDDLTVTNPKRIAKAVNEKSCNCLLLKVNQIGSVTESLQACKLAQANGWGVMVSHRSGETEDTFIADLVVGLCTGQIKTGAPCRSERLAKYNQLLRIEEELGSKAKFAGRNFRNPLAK

Kd: 1900 ± 900 nM
SMILES: O=C1c2c(cc(O)c([C@@H]3CCc4cc(Cl)c(Cl)n43)c2O)-c2cc(Cl)c(Cl)n21 [compound 1, (-)-chlorizidine A]
